From patent US12558428B2, “Heterobifunctional compounds and their use in treating disease” (Halda Therapeutics OpCo, Inc., priority 2024, dated 2026)

Experiments:
[1] = system: MCF7 cells (ATCC #HTB-22); assay: Cellular growth inhibition assay, MCF7 cells purchased from ATCC; assay type: cell-based; conditions: Homo sapiens, MCF7, 144 h, Table 8-A; MCF7 cells purchased from ATCC; six days; CellTiter-Glo; read-out: GI50
In short: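 GI50 values come from a four-parameter fit of CellTiter-Glo 2.0 luminescence after six days of compound exposure at 37° C. Seeding density depended on the source: 225 cells/well for ECACC MCF7, 1,500 for ATCC. Medium was RPMI 1640 with 10% FBS and 0.2 U/ml insulin.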

BRD4-BD2 = target: T1, BRD4-BD2 (Homo sapiens, UniProt O60885); assay: Binding affinity to BRD4-BD2 (bromoKdELECT assay)
T1 construct: made in house; host or cells: T7 phage grown in E. coli host derived from BL21
Method: Exemplary compounds were tested for ability to bind to BRD4-BD2.
Compounds were tested using a bromoKdELECT assay. T7 phage strains displaying bromodomains were grown in parallel in 24-well blocks in an E. coli host derived from the BL21 strain. E. coli were grown to log-phase and infected with T7 phage from a frozen stock (multiplicity of infection=0.4) and incubated with shaking at 32° C. until lysis (90-150 minutes). The lysates were centrifuged (5,000×g) and filtered ([…]) to remove cell debris. Streptavidin-coated magnetic beads were treated with biotinylated small molecule or acetylated peptide ligands for 30 minutes at room temperature to generate affinity resins for bromodomain assays. The liganded beads were blocked with excess biotin and washed with blocking buffer (SeaBlock (Pierce), 1% BSA, 0.05% Tween 20, 1 mM DTT) to remove unbound ligand and to reduce nonspecific phage binding. Binding reactions were assembled by combining bromodomains, liganded affinity beads, and test compounds in 1× binding buffer (17% SeaBlock, 0.33×PBS, 0.04% Tween 20, 0.02% BSA, 0.004% Sodium azide, 7.4 mM DTT). Test compounds were prepared as 1000× stocks in 100% DMSO. Kds were determined using an 11-point 3-fold compound dilution series with one DMSO control point. […] The bromodomain concentration in the eluates was measured by qPCR.

For `CCN(CCCCCCCCNC(=O)C[C@@H]1N=C(c2ccc(Cl)cc2)c2c(sc(C)c2C)-n2c(C)nnc21)CCOc1ccc(C(=O)c2c(-c3ccc(O)cc3)sc3cc(O)ccc23)cc1` [I-2, (S)-2-(4-(4-chlorophenyl)-2,3,9-trimethyl-6H-thieno[3,2-f][1,2,4]triazolo[4,3-a][1,4]diazepin-6-yl)-N-(8-(ethyl(2-(4-(6-hydroxy-2-(4-hydroxyphenyl)benzo[b]thiophene-3-carbonyl)phenoxy)ethyl)amino)octyl)acetamide], which GI50 [1] is on record?
Its GI50 is 50 to 500 nM.

What about the Kd (BRD4-BD2) of the same compound?
The Kd was less than 50 nM.

Which results are given for `CCN(CCOCCOCCNC(=O)C[C@@H]1N=C(c2ccc(Cl)cc2)c2c(sc(C)c2C)-n2c(C)nnc21)CCOc1ccc(C(=O)c2c(-c3ccc(O)cc3)sc3cc(O)ccc23)cc1` [I-3, (S)-2-(4-(4-chlorophenyl)-2,3,9-trimethyl-6H-thieno[3,2-f][1,2,4]triazolo[4,3-a][1,4]diazepin-6-yl)-N-(2-(2-(2-(ethyl(2-(4-(6-hydroxy-2-(4-hydroxyphenyl)benzo[b]thiophene-3-carbonyl)phenoxy)ethyl)amino)ethoxy)ethoxy)ethyl) acetamide]?
GI50 [1]: 50 to 500 nM; Kd (BRD4-BD2): < 50 nM
